We go through 7 molecules from patent publication US6413974B1, “6,9,-disubstituted 2-[trans-(4-aminocyclohexyl) amino] purines” (Aventis Pharmaceuticals Inc., priority 1998, dated 2002).

Several values for one entry are separate records, joined by “and”; a condition that tells them apart may be missing. Equal entries are not always repeated. Structures can show the parent of a compound that is named as a salt. Where two headings read alike, the source gives them in different places.

The subject of one test is MDA-MB-435. The test is described as follows: In vitro tumor cell proliferation, MDA-MB-435. The note with it: read-out: In vitro Tumor Cell Proliferation (IC50, μM) Breast MDA-MB-435. Type of test: cell-based, human. Here is the method:
The proliferation of tumor cells was measured using a sulforhodamine B assay as described in Skehan, P., et al., J. Natl. Cancer Inst. […] Tumor cells were harvested with trypsin-EDTA, cells that excluded trypan blue were counted, added to 96-well plates and incubated overnight at 37° C. Drug was added to the wells following dilution in culture medium. Three days later, the medium was removed and replenished with medium containing fresh drug and incubated an additional 4 days. The cells were then fixed with 0.1 ml 10% trichloroacetic acid for 60 min at 4° C. The plates were rinsed five times with tap water, air-dried and stained for 30 min with 0.4% sulforhodamine B in 1% acetic acid and air-dried.
Alternatively, the CyQUANT cell proliferation assay was used to quantify tumor cell proliferation. Tumor cells were harvested with trypsin-EDTA, cells that excluded trypan blue were counted, added to 96-well plates and incubated overnight at 37° C. Drug was added to the wells following dilution in culture medium. Three days later the medium was removed and the plates frozen at −80° C. for at least 30 minutes.

The next test concerns Colo-205. The experiment in a line: In vitro tumor cell proliferation, Colo-205. The format is cell-based, human. The following applies: read-out: In vitro Tumor Cell Proliferation (IC50, μM) Colon Colo-205. Put shortly: (§1)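 Cells seeded overnight at 37° C, then exposed to drug 3 days, medium and drug renewed, plus 4 more days; TCA-fixed and sulforhodamine B stained. Alternatively CyQUANT read-out after 3 days' drug exposure, plates frozen at −80° C.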

A further test deals with T1, cdk4/cyclin D1 (Homo sapiens, UniProt P11802).
T1 construct: made in house; host or cells: Sf9 insect cells (Bac-to-Bac baculovirus, pFastBac)
The test is described as follows: Cyclin-dependent kinase 4 Assay. Type of test: biochemical. The following applies: cdk4/cyclin D1, GST-Rb substrate, 10 μM ATP, 30 min at 37° C.; read-out: CDK4 Inhibition IC50. Put shortly:
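Insect-cell lysate of coexpressed human cdk4/cyclin D1 (0.1 μg) phosphorylated bead-bound GST-Rb (0.5 μg) in 50 mM HEPES pH 7.5, 10 mM MgCl2, 1 mM EGTA for 30 min at 37 °C. Filters were washed with TNEN and scintillation-counted; IC50 values derived.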

In a further test the test system is HT-29. The experiment in a line: In vitro tumor cell proliferation, HT-29. Type of test: cell-based, human. The note with it: read-out: In vitro Tumor Cell Proliferation (IC50, μM) Colon HT-29 (converted). In short, it runs like this:
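HT-29 human colon adenocarcinoma cells plated overnight at 37° C., then exposed to drug for 3 days, medium with fresh drug replaced for a further 4 days. Cells fixed with 10% TCA and stained with 0.4% sulforhodamine B; alternatively, CyQUANT read after 3 days of drug exposure.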

In a further test the test system is A549. The test is described as follows: In vitro tumor cell proliferation, A549. The following applies: read-out: In vitro Tumor Cell Proliferation (IC50, μM) Lung A549. The format is cell-based, human. Put shortly:
as §1

For the next test, the system named is DMS-114. The experiment in a line: In vitro tumor cell proliferation, DMS-114. Type of test: cell-based, human. The note with it: read-out: In vitro Tumor Cell Proliferation (IC50, μM) Lung DMS-114. Put shortly:
as §1

The next test relates to PC-3. The experiment in a line: In vitro tumor cell proliferation, PC-3. The note with it: read-out: In vitro Tumor Cell Proliferation (IC50, μM) Prostate PC-3. Type of test: cell-based, human. Put shortly: as §1
Another test deals with MDA-MB-231. The experiment in a line: In vitro tumor cell proliferation, MDA-MB-231. Type of test: cell-based, human. The note with it: read-out: In vitro Tumor Cell Proliferation (IC50, μM) Breast MDA-MB-231. In short, it runs like this: as §1
A further test concerns DU 145. The experiment in a line: In vitro tumor cell proliferation, DU 145. The note with it: read-out: In vitro Tumor Cell Proliferation (IC50, μM) Prostate DUI45. The format is cell-based, human. In short, it runs like this:
as §1

In the next test the target is T2, cdk2/cyclin E (Homo sapiens, UniProt P24941).
T2 construct: made in house; host or cells: insect cells (baculovirus co-infection)
The test is described as follows: Cyclin-Dependent Kinase 2 Assay (cdk-2 inhibition). Type of test: biochemical. The note with it: GST-Rb substrate, 30 min at 30° C. In short, it runs like this:
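GST-Rb bound to glutathione-Sepharose beads (0.5 μg/well) as substrate in 50 mM HEPES pH 7.5, 10 mM MgCl2, 1 mM EGTA. Recombinant cdk2/cyclin E at 0.1 μg per 100 μl, 30 min at 30 °C. Reaction stopped by filtration, TNEN washes, scintillation counting.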

Where [1] appears, read: Homo sapiens, MDA-MB-435, values marked * (mark not explained).
[2] abbreviates: Homo sapiens, COLO 205, values marked * (mark not explained).
Where [3] appears, read: values marked * (mark not explained), dihydrochloride.
The mark [4] stands for this setting: Homo sapiens, HT-29, values marked * (mark not explained).
Where [5] appears, read: Homo sapiens, A549, values marked * (mark not explained).
Where [6] appears, read: Homo sapiens, DMS-114, values marked * (mark not explained).
Where [7] appears, read: Homo sapiens, PC-3, values marked * (mark not explained).
Where [8] appears, read: Homo sapiens, MDA-MB-231, values marked * (mark not explained).
Where [9] appears, read: Homo sapiens, DU-145, values marked * (mark not explained).

T1 sequence (P11802 whole entry): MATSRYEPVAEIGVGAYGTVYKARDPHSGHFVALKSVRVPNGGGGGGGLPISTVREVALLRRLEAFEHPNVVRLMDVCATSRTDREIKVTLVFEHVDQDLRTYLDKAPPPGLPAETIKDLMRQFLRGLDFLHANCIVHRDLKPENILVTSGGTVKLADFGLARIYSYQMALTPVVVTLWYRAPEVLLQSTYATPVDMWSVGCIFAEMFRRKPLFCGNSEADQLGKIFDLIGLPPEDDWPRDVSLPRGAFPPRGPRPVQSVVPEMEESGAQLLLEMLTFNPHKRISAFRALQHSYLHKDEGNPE
T1 sequence (P24385 whole entry partner): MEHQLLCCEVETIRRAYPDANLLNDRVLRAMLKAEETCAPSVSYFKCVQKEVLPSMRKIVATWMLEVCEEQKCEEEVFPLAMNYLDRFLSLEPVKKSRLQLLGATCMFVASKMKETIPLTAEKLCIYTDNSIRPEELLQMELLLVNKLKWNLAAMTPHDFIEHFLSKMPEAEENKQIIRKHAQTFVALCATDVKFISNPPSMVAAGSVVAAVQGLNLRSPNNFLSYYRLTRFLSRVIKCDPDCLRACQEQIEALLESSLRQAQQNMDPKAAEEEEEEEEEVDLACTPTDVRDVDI

Take `CC(CCCC(C)(C)O)Nc1nc(N[C@H]2CC[C@H](N)CC2)nc2c1ncn2C1CCCC1` (relative stereo) [Example 54, 2-[Trans-(4-aminocyclohexyl)amino]-6-[(5-hydroxy-1,5-dimethylhexyl)amino]-9-cyclopentylpurine dihydrochloride]: the IC50 was 1.6 µM in the test with MDA-MB-435 (setting [1]); 0.63 µM in the test on Colo-205 (setting [2]); 0.58 µM with Colo-205 (setting [3]); 2000 nM and 1200 nM at cdk4/cyclin D1; 1 µM with HT-29 (setting [4]); 0.68 µM in the test with A549 (setting [5]). The IC50 turned out to be 0.63 µM in the test with A549 (setting [3]); 0.78 µM in the test on DMS-114 (setting [6]); 0.61 µM in the test with DMS-114 (setting [3]); 0.83 µM in the test with PC-3 (setting [7]); 0.8 µM in the test on PC-3 (setting [3]); 1 µM in the test on MDA-MB-231 (setting [8]). The IC50 with DU 145 (setting [9]) turned out to be 1.4 µM; at cdk2/cyclin E it was 85 nM.
In the case of `NCCCCNc1nc(N[C@H]2CC[C@H](N)CC2)nc2c1ncn2C1CCCC1` [Example 5, 2-[Trans-(4-aminocyclohexyl)amino]-6-[(4-aminobutyl)amino]-9-cyclopentylpurine dihydrochloride], the IC50 in the test on MDA-MB-435 (setting [1]) is 5.7 µM; with MDA-MB-435 (setting [3]), 4.4 µM; with Colo-205 (setting [2]) it was 2.4 µM; in the test on Colo-205 (setting [3]), 1.6 µM; at cdk4/cyclin D1, 290 nM and 380 nM; in the test with A549 (setting [5]) it was 1.6 µM. The IC50 worked out at 1.1 µM with A549 (setting [3]); 3.1 µM with DMS-114 (setting [6]); 2.8 µM with DMS-114 (setting [3]); 5.7 µM with PC-3 (setting [7]); 7.2 µM in the test on PC-3 (setting [3]); 2.9 µM in the test with MDA-MB-231 (setting [8]). Besides, the IC50 in the test with MDA-MB-231 (setting [3]) was determined as 3.2 µM; in the test on DU 145 (setting [9]), 2.4 µM; in the test with DU 145 (setting [3]), 2.8 µM; against cdk2/cyclin E, 42 nM.
Regarding `N[C@H]1CC[C@H](Nc2nc(NCCc3cccnc3)c3ncn(C4CCCC4)c3n2)CC1` [Example 7, 2-[Trans-(4-aminocyclohexyl)amino]-6-[(3-pyridyl)-2-ethylamino]-9-cyclopentylpurine dihydrochloride], the IC50 was found to be 11 µM in the test with MDA-MB-435 (setting [1]); 6.3 µM in the test with Colo-205 (setting [2]); 7.8 µM with Colo-205 (setting [3]); 300 nM at cdk4/cyclin D1; 15 µM in the test on A549 (setting [5]); 16 µM with DMS-114 (setting [6]). The IC50 is 24 µM in the test on DMS-114 (setting [3]); 8 µM with PC-3 (setting [7]); 4.6 µM in the test with PC-3 (setting [3]); 7.9 µM with MDA-MB-231 (setting [8]); 7 µM in the test on MDA-MB-231 (setting [3]); 10 µM in the test on DU 145 (setting [9]). Further, the IC50 in the test on DU 145 (setting [3]) was 9 µM; against cdk2/cyclin E, 60 nM.
With `N[C@H]1CC[C@H](Nc2nc(NCc3ccncc3)c3ncn(C4CCCC4)c3n2)CC1` [Example 8, 2-[Trans-(4-aminocyclohexyl)amino]-6-[(4-pyridyl)methylamino]-9-cyclopentylpurine dihydrochloride], the IC50 in the test on MDA-MB-435 (setting [1]) was 10 µM; with Colo-205 (setting [2]) it was 4.6 µM; with Colo-205 (setting [3]) it was 4.1 µM; on cdk4/cyclin D1 it was 700 nM and 800 nM; in the test with HT-29 (setting [4]) it was 7.6 µM; in the test with HT-29 (setting [3]) it was 11 µM. Besides, the IC50 came out at 7.7 µM in the test with A549 (setting [5]); 5.9 µM with A549 (setting [3]); 9.9 µM in the test with DMS-114 (setting [6]); 7.4 µM in the test on DMS-114 (setting [3]); 4.6 µM in the test on PC-3 (setting [7]); 5.4 µM in the test with PC-3 (setting [3]). Also, the IC50 in the test on MDA-MB-231 (setting [8]) amounted to 5.3 µM; with MDA-MB-231 (setting [3]), 8.1 µM; in the test on DU 145 (setting [9]), 5.8 µM; in the test with DU 145 (setting [3]), 6.5 µM; against cdk2/cyclin E, 110 nM.
Consider `CCCCCNc1nc(N[C@H]2CC[C@H](N)CC2)nc2c1ncn2C1CCCC1` [Example 26, 2-[Trans-(4-aminocyclohexyl)amino]-6-(pentylamino)-9-cyclopentylpurine dihydrochloride], for which the IC50 in the test with MDA-MB-435 (setting [1]) was 2.2 µM; in the test with MDA-MB-435 (setting [3]) it was 2.3 µM; in the test on Colo-205 (setting [2]), 1.3 µM; with Colo-205 (setting [3]) it was 1.5 µM; at cdk4/cyclin D1 it was 510 nM and 460 nM; in the test with HT-29 (setting [4]), 1.4 µM. The IC50 in the test with HT-29 (setting [3]) was 1.6 µM; with DMS-114 (setting [6]), 1.8 µM; with DMS-114 (setting [3]), 1 µM; with PC-3 (setting [7]), 1 µM; in the test on PC-3 (setting [3]) it was 1.4 µM; with MDA-MB-231 (setting [8]), 1.2 µM. Also, the IC50 was 1.4 µM in the test with MDA-MB-231 (setting [3]); 0.73 µM in the test on DU 145 (setting [9]); 0.95 µM with DU 145 (setting [3]); 80 nM and 36 nM against cdk2/cyclin E.
With `N[C@H]1CC[C@H](Nc2nc(NCCCO)c3ncn(C4CCCC4)c3n2)CC1` [Example 53, 2-[Trans-(4-aminocyclohexyl)amino]-6-[(3-hydroxypropyl)amino]-9-cyclopentylpurine dihydrochloride], the IC50 is 12 µM in the test on MDA-MB-435 (setting [1]); 11 µM with MDA-MB-435 (setting [3]); 5.1 µM with Colo-205 (setting [2]); 5 µM in the test on Colo-205 (setting [3]); 290 nM and 94 nM and 75 nM at cdk4/cyclin D1; 12 µM in the test with A549 (setting [5]). In addition, the IC50 in the test on A549 (setting [3]) stood at 9.3 µM; with DMS-114 (setting [6]) it was 16 µM; in the test on DMS-114 (setting [3]) it was 17 µM; in the test on PC-3 (setting [7]), 3.4 µM; in the test on PC-3 (setting [3]), 5.9 µM; with MDA-MB-231 (setting [8]), 6.7 µM. The IC50 was 8.5 µM in the test with MDA-MB-231 (setting [3]); 7.5 µM in the test with DU 145 (setting [9]); 11 µM with DU 145 (setting [3]); 13 nM and 26 nM on cdk2/cyclin E.
For the molecule `NCCCCCCCCNc1nc(N[C@H]2CC[C@H](N)CC2)nc2c1ncn2C1CCCC1` [Example 56, 2-[Trans-(4-amninocyclohexyl)amino]-6-[(8-aminooctyl)amino]-9-cyclopentylpurine dihydrochloride], the IC50 with MDA-MB-435 (setting [1]) was 3.8 µM; with MDA-MB-435 (setting [3]) it was 3.1 µM; in the test on Colo-205 (setting [2]) it was 3.5 µM; in the test with Colo-205 (setting [3]), 6.3 µM; on cdk4/cyclin D1, 860 nM; with HT-29 (setting [4]), 2.5 µM. In addition, the IC50 in the test with HT-29 (setting [3]) was 3.4 µM; in the test on A549 (setting [5]), 2.8 µM; in the test on A549 (setting [3]), 2.5 µM; in the test with PC-3 (setting [7]), 2.7 µM; in the test on PC-3 (setting [3]), 4.4 µM; with MDA-MB-231 (setting [8]), 2.2 µM. Moreover, the IC50 was determined as 3.5 µM in the test on MDA-MB-231 (setting [3]), 4.9 µM in the test with DU 145 (setting [9]), 3.6 µM in the test on DU 145 (setting [3]) and 115 nM against cdk2/cyclin E.
